Molecules are shown by their SMILES. pIC50: −log10 of the molar value.

By pIC50 is commonly meant the negative decadic logarithm of the IC50, by convention in mol/L. Higher therefore signals a small IC50.

Test [1] concerns non-cancer lung cell strain MRC-9. Put plainly: Cell growth inhibition in non-cancer lung cells. Format: cell-based. Particulars: MRC-9 non-cancer lung cells.
Test [2] concerns non-small cell lung cancer cell strain A549. Put plainly: Nuclear agglutination and segmentation, Hoechst 33342 staining. The format is cell-based, human. The following applies: 50 uM, about 48 hours. The protocol:
(§1) To observe typical nuclear morphological changes from cell death, the cells treated with the compounds PB01 or PB11 of Examples 5 and 3 were collected, followed by removing a supernatant. After 500 μl of a fixing solution as a 1:9 mixture of a 37% formaldehyde solution and PBS buffer solution was added into the remaining cells, thoroughly mixed together, and left at room temperature for about 10 minutes for fixation. After the fixed cells were centrifuged at about 2,000 rpm for about 5 minutes, the fixing solution was removed, and the remaining cells were floated in a PBS buffer solution. After dropping the floating cells onto a slide glass, followed by cytospinning at about 1,000 rpm for about 5 minutes to fix the floating cells onto the slide glass. The slide glass with the fixed cells was treated with 2 μg/mL of a Hoechst 33342 solution (Sigma, St. Louis, Mo., U.S.A), followed by staining at room temperature for about 20 minutes. After termination of the staining, the staining reagent was washed out, and nuclear morphological changes in the cancer cells were observed by florescent microscopy (ECLIPSE E600; Nikon, Tokyo, Japan) at a 400× magnification.

Test [3] deals with non-small cell lung cancer cell strain H460. Described as above. Particulars: 50 uM, about 48 hours. Format: cell-based, human. The method, then:
as §1

For test [4], the system named is non-small cell lung cancer cell strain A549. In words: Cancer cell growth inhibition, WST-1 cell viability. The format is cell-based, human. Particulars: compared among cell strains. The protocol:
(§2) Cancer cell growth inhibitory effects of the compounds PB01 and PB11 of Examples 5 and 3 identified as PPAR-γ ligands were evaluated. Growth inhibitory effects of the compounds PB01 and PB11 of Examples 5 and 3 on various cancer cells, including human non-small cell lung cancer cell strains (A549, H460), breast cancer cell strains (MCF-7, T-470), colorectal cancer cell strains (LoVo, SW480), and leukocytes cancer cell strains (HL-60, K562) (American Type Culture Collection, Manassas, Va.), were evaluated using WST-1 method. About 5×10^3 cells per well of each type of cancer cell strains were portioned into a 96-well plate, and incubated with different concentrations of each of the compounds PB01 and PB11 of Examples 5 and 3 in 200 ul of a culture solution for 24 hours, 48 hours, and 72 hours. After the incubation for the different durations, 10 ul of a WST-1 solution was added to each well, followed by incubation at about 37° C. for about 1 hour. Absorbance at 450 nm was measured to determine cell viability.
(In general: Tetrazolium dyes change colour on reduction, which living cells bring about.)

The test system of test [5] is non-small cell lung cancer cell strain H460. The test is described as above. Format: cell-based, human. The following applies: compared among cell strains. The method, then:
as §2

The test system of test [6] is non-cancer lung cell strain MRC-5. In words: Cell growth inhibition in non-cancer lung cells. Format: cell-based. The following applies: MRC-5 non-cancer lung cells.
Test [7] concerns non-small cell lung cancer cell strain A549. In words: Trypan blue live cell count (cell viability). The format is cell-based, human. The following applies: for cancer cell apoptosis effect: 50 μM; for cancer cell apoptosis effect with respect to concentration and incubation time: 10-50 uM, 8 to 72 hours, FIG. 3A; for pIC50: Homo sapiens, time taken to reach the IC50 48 hours. The method, then: (§3) Whether the cancer cell growth inhibitory effects of the compounds PB01 and PB11 on the non-small cell lung cancer cell strains is associated with apoptosis was investigated. The cell growth inhibitory effects were evaluated by a trypan blue assay, and cell shapes were observed using an inverted microscope. The shapes of cell nuclei were observed via Hoeschst 33342 staining. Degrees of inducing apoptosis were quantized by flow cytometry (fluorescent activated cell sorting (FACS)).
(§4) After about 5×10^3 cells per well of each of the human non-small cell lung cancer cell strains A549 and H460 were portioned into a 96-well plate, about 10 uM to about 50 uM of the compounds PB01 or PB11 in 200 ul of culture solution were added into the wells, and incubated for about 8 to 72 hours. Cells were collected from the incubation product, and centrifuged at about 2,000 rpm for 5 minutes. After removing a supernatant, the remaining cells were mixed with 1 mL of phosphate-buffered saline (PBS) to obtain a cell suspension, which was then mixed with an equal amount of 0.5% trypan blue (Gibco BRL), followed by treatment for about 1 minute. The number of live cells was counted using a phase-contrast) microscope. The live cell counting was repeated three times, and an average live cell count and a standard error were calculated using a Microsoft Excel program. Cell viability graphs with respect to compound concentration and incubation time were obtained. The same experiment was performed with 50 μM of the compound PB01, PB11 50 μM of the compound PB11, or 150 μM of the compound PB12 150 μM, and cell viability graphs with respect to compound concentration and incubation time were obtained.

For test [8], the system named is non-small cell lung cancer cell strain H460. Put plainly: Trypan blue live cell count (cell viability). Format: cell-based, human. Particulars: for cancer cell apoptosis effect: 50 μM; for cancer cell apoptosis effect with respect to concentration and incubation time: FIGS. 3A and 3B, PB12 at 150 μM; for pIC50: Homo sapiens, NCI-H460, time taken to reach the IC50 48 hours. The method, then:
as §3, §4

Consider `COC1CCC(C(=O)Nc2ccc3nc(SCc4c(C)noc4C)sc3c2)CC1` (centres unmarked) [PB01], for which the “cell growth inhibitory effect” value in test [1] and in test [6] was “nearly zero” each time. Also, the “nuclear morphological changes (apoptotic bodies)” value (“nuclear morphological changes” for short) in test [2] and in test [3] was “increased apoptotic bodies due to nuclear agglutination” each time. The “cancer cell growth inhibition” value in test [4] and in test [5] was “most effective” in each case. Further, the “cancer cell apoptosis effect” value in test [7] and in test [8] was “remarkable cancer cell apoptosis effects” each time. Further, the “cancer cell apoptosis effect with respect to concentration and incubation time” value is “improved cancer cell apoptosis effects with increases in concentration and incubation time” in test [7]; “improved cancer cell apoptosis effects with increases in concentration and incubation time” in test [8]. The pIC50 in test [7] and in test [8] was 4.30 each time.
Consider `Cc1noc(C)c1CSc1nc2ccc(NC(=O)C3CCC(=O)CC3)cc2s1` [PB11], for which, in test [2], the “nuclear morphological changes” value is “increased apoptotic bodies due to nuclear agglutination”. Moreover, the “nuclear morphological changes” value in test [3] was “increased apoptotic bodies due to nuclear agglutination”. Further, in test [7], the “cancer cell apoptosis effect” value was “remarkable cancer cell apoptosis effects”; the “cancer cell apoptosis effect with respect to concentration and incubation time” value is “improved cancer cell apoptosis effects with increases in concentration and incubation time”; the pIC50 is 4.30. In addition, in test [8], the “cancer cell apoptosis effect” value is “remarkable cancer cell apoptosis effects”; the “cancer cell apoptosis effect with respect to concentration and incubation time” value was “improved cancer cell apoptosis effects with increases in concentration and incubation time”; the pIC50 was 4.30.
